Data published in patent US20110312015A1, “RAPID THROMBOCHEK TEST KIT BASED ON WHOLE BLOOD SCREENING TEST TO DETECT PLATELET HYPERAGGREGATION AT A TEMPERATURE OF 37ºC IN THE CLINICAL LABORATORY” (priority 2008, published 2011).
Where two headings read alike, the source gives them in different places.

What was measured:
platelets in whole blood = conditions: 0.5 uM Epinephrine, 180 seconds
Method: Collecting a blood sample from an individual in EDTA anticoagulant vacutainer first and then taking blood in trisodium citrate-anticoagulant vacutainer with the same venipuncture and mixing both the samples with the respective anticoagulants at least 15 to 20 times by inversion and allowing EDTA sample to stand at room temperature for a minimum of 20 minutes and then within two hours of collection, the EDTA sample is analysed on an automated hematology analyser to determine the platelet count and appropriate aliquote of citrate sample is taken in a plastic cuvette with a magnetic bar and stirred for 3 minutes at 37° C. and a weak agonist of platelet aggregation in low concentration is added to stirred citrate sample and further stirred for another three minutes at 37° C. At the end of these last three minutes the stirred citrate agonist treated sample is analysed on an hematology analyser for platelet count. Difference between EDTA platelet count and agonist treated stirred citrate platelet count, percentage of platelet aggregation is calculated by dividing the difference by EDTA platelet count and multiplying it by 100.
All samples were collected in the morning when the subjects were fasting. Blood was collected in Plain vaccutainer then EDTA vacutainer by a clean venipuncture using a 20 G needle and then in the 3.8% Na citrate (1:10 dil) vacutainer. Both these anticoagulated blood samples were thoroughly mixed with respective anticoagulants by inversion (15 to 20 times) and the EDTA sample was made to stand at room temperature for 20 minutes after collection and only then analysed for platelet count measurements on the automated hematology analyser. Both samples were analysed within two hours of collection. […]

platelets = assay: Platelet aggregation in blood anticoagulated with D-Phe-Pro-Arg chloromethyl ketone dihydrochloride; format: cell-based; conditions: aggregation caused by addition of agonist
From the text: Heparin, Na Citrate 3.2% can also be used instead of citrate 3.8% as anticoagulant to study platelet hyperaggregation.

hyperactive platelets = assay: Assessment of efficacy of antiplatelet treatment in patients by Rapid Thrombochek test and microscopic method; format: in vivo, human; conditions: twenty myocardial infarction patients on daily aspirin for minimum 3 weeks; both methods
Method: Tests were carried out on healthy adults (male and female) and the normals were established. The test was carried out on patients of diabetes mellitus and known cases of myocardial infarction. […] All the smears were prepared by taking a drop of blood on slide and making a smear by cover slide method of smear preparation. All the smears were fixed in alcohol after drying and stained with […] stain and examined under oil immersion lense. Platelets free and in aggregates were counted and percentage of aggregation was worked out. TWENTY PATIENTS OF MYOCARDIAL INFARCTION ON DAILY ASPIRIN FOR MINIMUM PERIOD OF 3 WEEKS WERE TESTED BY […] WELL AS BY MICROSCOPIC METHOD FOR ASSESSMENT OF EFFICACY OF ANTIPLATELET TREATMENT.

Molecule: CNC[C@H](O)c1ccc(O)c(O)c1 [Epinephrine, Epinephrine bitartrate]
- Platelet Aggregation % at 180 sec. at 37° C., mean (SD) (platelets in whole blood; Diabetes patients): 35 (12) %
- Platelet Aggregation % at 180 sec. at 37° C., mean (SD) (platelets in whole blood; MI (myocardial infarction) patients): 29 (11) %
- Platelet Aggregation % at 180 sec. at 37° C., mean (SD) (platelets in whole blood; Normal group (healthy adults)): 14.5 (7) %

Molecule: D-Phe-Pro-Arg chloromethyl ketone dihydrochloride
- Effect on agonist-induced platelet aggregation when used as anticoagulant (platelets): substantial disaggregation of platelet aggregation

Molecule: CC(=O)Oc1ccccc1C(=O)O [ASPIRIN, Aspirin]
- Efficacy of antiplatelet treatment (hyperactive platelets above normal range) (hyperactive platelets): LESS THAN EFFECTIVE IN FOUR OF THEM
